Test results reported in article PMC8472512, “Synthesis and Biochemical Evaluation of Baicalein Prodrugs” (Pharmaceutics, 2021).

What was measured:
[1] = Stability in mouse plasma; assay type: in vitro ADME
Method: Working solutions of the test compounds (baicalein, enalapril, and compounds 1–7) prepared in 50 vol% aqueous MeOH at 40 μM were diluted in mouse plasma in triplicate to a final concentration of 1 μM. The mixtures were then incubated at 37 °C in a shaking water bath. A 50 μL aliquot was removed at 0 and 60 min from each incubation mixture followed by immediate mixing with 150 μL ice-cold MeOH containing 1 μg/mL glipizide as the internal standard (IS). The resulting mixtures, following a 5-min vortexing and sonication, were then centrifuged at 3000 rpm for 30 min at 4 °C. The supernatant was analyzed by Agilent 6460 QQQ LC−MS/MS system in a positive multiple reaction monitoring (MRM) mode. Gradient elution was conducted on an Agilent Eclipse Plus C18 column (100 × 2.1 mm, 3.5 µm) at 40 °C with 0.1 vol% formic acid in deionized water and 0.1 vol% formic acid in acetonitrile running at 0.45 mL/min. MRM transitions of the analytes were set as follows: baicalein: m/z 271→123, enalapril: m/z 377→234, 1: m/z 428→271, 2: m/z 414→271, 3: m/z 428→271, 4: m/z 416→271, 5: m/z 462→271, 6: m/z 386→271, 7: m/z 372→271, and glipizide: m/z 446→321. The analytical data were analyzed using Agilent MassHunter Quantitative Analysis Software (version B.05.00). Peak area ratios of the analytes vs. IS on the MRM chromatograms were used to calculate % remaining at 60 min.

[2] = Chemical stability in physiologically-relevant solutions; assay type: physicochemical; conditions: 37 °C; for remaining at 4 h, 10 μM: at 4 h vs time 0
Method: Stock solutions of the test compounds (baicalein, compounds 1–7) prepared in MeOH at 10 mM were diluted in 0.1 N HCl and 0.1 M potassium phosphate buffer (pH 6.5 and 7.4) in triplicate to a final concentration of 10 μM. The mixtures were then incubated at 37 °C in a shaking water bath. Samples taken at 0, 1, 2, 3 and 4 h were analyzed by Thermo UltiMate 3000 series HPLC system. Chromatographic separation was performed on an Agilent Eclipse Plus C18 column (100 × 4.6 mm, 3.5 µm) kept at 40 °C with isocratic elution at a flow rate of 0.6 mL/min using a mixture of 0.1 vol% TFA in deionized water and acetonitrile as the mobile phase. The detection wavelengths were 277 and 270 nm for baicalein and compounds 1–7, respectively. Peak areas of the analytes on the UV chromatograms were used to calculate % remaining values at each time points.
The stability of baicalein and of the synthesized carbamate prodrugs (1–7) was determined in solutions mimicking gastric (0.1 N HCl, pH ~ 1), intestinal (pH 6.5 phosphate buffer), and physiological (pH 7.4 phosphate buffer) conditions. […]. […] […]. The degradation of the carbamate prodrugs was accompanied by the formation of baicalein under all conditions in this study (data not shown). Although the exact reason for this pH-dependent stability remains unknown, it is plausible that the side chains of amino acids somehow affect the hydrolysis of the carbamate bond of the prodrugs.

Mouse pharmacokinetics = assay type: in vivo, male ICR mice; conditions: for AUC(0-t) / Cmax / Tmax / AUC(0-inf) / half-life: male, ICR, mouse
Method: Pharmacokinetic studies were conducted with male ICR mice (8 weeks old; 30–35 g body wt.) purchased from Koatech Company (Pyeongtaek, Korea), as reported previously. Intravenous dosing solutions were prepared in EtOH/20% aqueous HPβCD (10/90 vol%) at 2 and 3 mg/mL for baicalein and compound 2, respectively. Oral dosing solutions were prepared in EtOH/tween 80/20% aqueous HPβCD (10/10/80 vol%) at 1 and 1.5 mg/mL for baicalein and compound 2, respectively. Plasma sample analysis was performed as described above in mouse plasma stability assay.

in vitro = conditions: PAMPA
Method: The assay was conducted as reported previously [15]. The samples were analyzed as described below in mouse plasma stability assay.

[3] = logD7.4 by shake-flask method; assay type: physicochemical; conditions: 1-octanol / 0.1 M potassium phosphate buffer, 0.1 M phosphate buffer (pH 7.4), duplicate
Method: The assay was conducted as reported previously. Briefly, 100 µM test solutions were prepared by diluting 10 mM stock solutions of the test compounds (baicalein and compounds 1–7) in 0.1 M potassium phosphate buffer (pH 7.4) saturated with 1-octanol. Standard solutions were prepared by diluting each test solution with the same volume of DMSO in HPLC vials. Partition solutions were prepared by mixing each test solution and 1-octanol saturated with 0.1 M potassium phosphate buffer (pH 7.4) at three different volume ratios, namely 1:0.02, 1:0.2 and 1:2, in HPLC vials. The partition solutions were then vortexed for 1 h at 1500 rpm at rt. The standard solutions and the aqueous phase (bottom layer) of each partition solution were analyzed directly from the HPLC vials as described above in Chemical stability assay. The logD7.4 values were calculated by the following equation: logD7.4=log(2×As/Ap−1)·Vt/Vo where As and Ap are, respectively, the peak areas of the standard and the aqueous phase of the partition solutions and Vt and Vo the volumes of test solution and 1-octanol of the partition solutions.

[4] = Metabolic stability in mouse liver S9 fractions; assay type: in vitro ADME; conditions: presence of the cofactor mixture (NADPH, UDPGA, PAPS, GSH), 37 °C, 60 min
Method: Working solutions of the test compounds (baicalein, 7-EC, and compounds 1–7) prepared in 50 vol% aqueous MeOH at 120 μM were added in triplicate to a 200 mM tris buffer (pH 7.4) containing mouse liver S9 fractions (1 mg protein/mL), alamethicin (25 μg/mL) and MgCl2 (2 mM). The final concentration of test compound was 3 μM. This mixture was pre-incubated at 37 °C in a shaking water bath for 5 min followed by addition of a cofactor mixture to following final concentrations: 1 mM NADPH, 0.5 mM UDPGA, 0.1 mM PAPS and 2.5 mM GSH. A 50 μL aliquot was taken at 0, 15, 30 and 60 min from each incubation mixture. These samples were then treated in the same way as described above in Mouse plasma stability assay. The supernatant was analyzed by Agilent 6530 Q−TOF LC−MS/MS system in a positive auto MS/MS scan mode. The liquid chromatography was conducted in the same condition as described above in mouse plasma stability assay. The analytical data were analyzed using Agilent MassHunter Quantitative Analysis Software (version B.05.00). MS chromatograms were extracted using calculated exact masses ([M+H]^+) for the analytes. Peak area ratios of the analytes vs. IS on the extracted MS chromatograms were used to calculate % remaining values at each time points.

[5] = iv, plasma analyte after single i.v. dose of baicalein 10 mg/kg, mice
[6] = iv, plasma analyte after single i.v. dose of compound 2 15 mg/kg, mice
[7] = po, plasma analyte after single p.o. dose of compound 2 50 mg/kg, mice

Q: With `CCOC(=O)[C@H](CCc1ccccc1)N[C@@H](C)C(=O)N1CCC[C@H]1C(=O)O` [Enalapril, enalapril] as the compound, how does the “% remaining in mouse plasma” value ([1]; 60 min incubation at 37 °C, 1 μM) read?
A: degraded

Q: Which half-life at 10 μM ([2]; 0.1 M potassium phosphate buffer, pH 6.5 buffer (0.1 M potassium phosphate)) does the source give for `O=c1cc(-c2ccccc2)oc2cc(O)c(O)c(O)c12` [Baicalein, 5,6,7-trihydroxy-2-phenyl-4H-1-benzopyran-4-one] here?
A: > 4 h

Q: What about the remaining at 4 h, 10 μM ([2]; 0.1 M potassium phosphate buffer, pH 6.5 buffer) of the same compound?
A: 101 ± 2.8%

Q: And the half-life at 10 μM ([2]; 0.1 M potassium phosphate buffer, pH 7.4 buffer (0.1 M potassium phosphate))?
A: > 4 h

Q: And the remaining at 4 h, 10 μM ([2]; 0.1 M potassium phosphate buffer, pH 7.4 buffer)?
A: 65.8 ± 2.6%

Q: And the half-life at 10 μM ([2]; pH 1, 0.1 N HCl, 10 μM)?
A: > 4 h

Q: And the remaining at 4 h, 10 μM ([2]; pH 1, 0.1 N HCl)?
A: 104 ± 4.1%

Q: What about the “time plasma analyte was above the quantitation limit” value (Mouse pharmacokinetics; after i.v. dose of compound 2 (approximately equimolar to 10 mg/kg baicalein), mice) of the same compound?
A: 8 h

Q: And the “time plasma analyte was above the quantitation limit” value (Mouse pharmacokinetics; after p.o. administration of compound 2, mice)?
A: 8 h

Q: What about the “time plasma analyte was above the quantitation limit” value (Mouse pharmacokinetics; after single i.v. dose of 10 mg/kg baicalein, mice) of the same compound?
A: up to 15 min

Q: What about the “time plasma analyte was above the quantitation limit” value (Mouse pharmacokinetics; after single p.o. dose of 10 mg/kg baicalein, mice, 24 h time course) of the same compound?
A: below the quantitation limit

Q: What about the AUC(0-t) (Mouse pharmacokinetics; [5]) of the same compound?
A: 1090 ± 640 ng·h/mL

Q: And the Cmax (Mouse pharmacokinetics; [5])?
A: 1470 ± 330 ng/mL

Q: What about the Tmax (Mouse pharmacokinetics; [5]) of the same compound?
A: 0.1 h

Q: What about the AUC(0-inf) (Mouse pharmacokinetics; [6]) of the same compound?
A: 4390 ± 1570 ng·h/mL

Q: And the AUC(0-t) (Mouse pharmacokinetics; [6])?
A: 4240 ± 1430 ng·h/mL

Q: What about the Cmax (Mouse pharmacokinetics; [6]) of the same compound?
A: 4190 ± 450 ng/mL

Q: What about the Tmax (Mouse pharmacokinetics; [6]) of the same compound?
A: 0.1 h

Q: What about the half-life (Mouse pharmacokinetics; [6]) of the same compound?
A: 1.5 ± 0.3 h

Q: And the AUC(0-inf) (Mouse pharmacokinetics; [7])?
A: 540 ± 150 ng·h/mL

Q: And the AUC(0-t) (Mouse pharmacokinetics; [7])?
A: 450 ± 140 ng·h/mL

Q: What about the Cmax (Mouse pharmacokinetics; [7]) of the same compound?
A: 230 ± 90 ng/mL

Q: What about the Tmax (Mouse pharmacokinetics; [7]) of the same compound?
A: 0.3 ± 0.09 h

Q: And the half-life (Mouse pharmacokinetics; [7])?
A: 2.6 ± 1.5 h

Q: What about the Papp (in vitro) of the same compound?
A: 5.75 ± 0.14 ×10⁻⁶ cm/s

Q: What about the logD [3] of the same compound?
A: 2.14

Q: And the remaining at 1 h, 1 μM ([1]; mouse, plasma)?
A: > 85%

Q: And the “metabolism in mouse liver S9 fractions” value [4]?
A: rapidly metabolized
